Assay results from EP4680608B1, “2,6-DIHYDRO-7H-PYRAZOLO[3,4-C]PYRIDIN-7-ONE DERIVATIVES AS ANTI-MALARIAL AGENTS” (MMV Medicines for Malaria Venture, priority 2024, dated 2025).
Where two headings read alike, the source gives them in different places.

Assays:
P. vivax DHODH = P. vivax DHODH (Plasmodium vivax, UniProt A5K1N1); assay: DHODH inhibition, steady-state DCIP assay (PvDHODH); assay type: biochemical
From the text: (§1) DOI: 10.1074/jbc.M206854200).
(§2) Proteins were expressed and purified on a Pharmacia FPLC using HisTrap HP column chromatography followed by gel filtration chromatography on a Pharmacia HiLoad 16/600 Superdex 200 column, and protein concentration determined based on OD280 using the previously described extinction coefficients (Kokkonda et al., 2020, J Med Chem, 63 (9), 4929-4956. DOI: 10.1021/acs.jmedchem.0c00311). Purified proteins were >95% pure based on SDS-PAGE analysis.
(§3) DHODH activity was monitored in a steady-state assay using the 2,6-dichloroindophenol (DCIP) method at 25°C in assay buffer (100 mM HEPES, pH 8.0, 150 mM NaCl, 1% glycerol, 0.1% Triton X-100 reduced) plus substrates 20 µM CoQD, 200 µM DHO, 120 µM DCIP, and 5 nM enzyme as previously described (Malmquist et al, 2008, Biochemistry, 47 (8), 2466-2475. DOI: 10.1021/bi702218c).
(§4) Compound stocks were prepared at 10-100 mM in DMSO, and diluted working stocks in DMSO were generated as appropriate. Compounds were plated from DMSO stocks in 96 well plate format using a Tecan D300e digital dispenser to generate a 3-fold dilution series over a concentration range of 0.0003 -100 µM (or 30 µM), yielding a final DMSO concentration of 1% in the assay. The top concentration used in the dose response was determined by the initial DMSO stock concentrations:100 µM for 100 mM stocks, and 30 µM for 10 mM stocks. Triplicate rate data were collected at each inhibitor concentration. Inhibitory IC50 values were determined by fitting the data to log (inhibitor) vs response equation Y = bottom + (top - bottom)/(1 + 10A ((X - Log IC50))) in GraphPad Prism. DSM265 ^2 was plated as an assay control in all studies.

P. falciparum DHODH = target: T1, P. falciparum DHODH (Plasmodium falciparum, UniProt Q08210); assay: DHODH inhibition, steady-state DCIP assay (PfDHODH); assay type: biochemical; details: recombinant PfDHODH, DCIP method, 25°C, 5 nM enzyme
T1 construct: His6 (N); made in house; host or cells: E. coli BL21-DE3 (phage-resistant)
T1 sequence (Q08210 158-569): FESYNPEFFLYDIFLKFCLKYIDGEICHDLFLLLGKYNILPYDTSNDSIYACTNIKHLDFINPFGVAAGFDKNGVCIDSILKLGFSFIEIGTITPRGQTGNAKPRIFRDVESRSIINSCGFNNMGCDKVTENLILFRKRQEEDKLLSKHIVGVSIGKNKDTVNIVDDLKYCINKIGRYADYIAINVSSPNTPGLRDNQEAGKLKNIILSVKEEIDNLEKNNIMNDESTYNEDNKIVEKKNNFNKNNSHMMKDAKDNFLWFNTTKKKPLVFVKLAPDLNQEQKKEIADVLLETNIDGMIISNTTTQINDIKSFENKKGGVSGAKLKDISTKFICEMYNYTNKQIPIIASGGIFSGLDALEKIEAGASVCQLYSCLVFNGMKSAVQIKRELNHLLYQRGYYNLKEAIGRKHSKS
Procedure: as §4, with “Prism.” for “Prism. DSM265 ^2 was plated as an assay control in all studies.”

P. falciparum 3D7 = assay: Asexual blood-stage growth inhibition assay, SYBR green method; assay type: cell-based; details: ring-stage 3D7 parasites
Procedure: Asexual blood-stage EC50 assays. […] Compound stocks prepared in DMSO were plated using a Tecan D300e automated low volume liquid handler. Ring-stage 3D7 or Dd2 parasites (60 µL cells) (2% hematocrit, 0.5% parasitemia, final DMSO concentration 0.5%) were added to plates, incubated with compounds over a range of concentrations in technical triplicate for 72 h at 37 °C, 5% CO2, and then frozen (-80°C) overnight before analysis. […] Data were analyzed by non-linear regression using GraphPad Prism to determine the EC50 by fitting to the built-in equation (log(inhibitor) vs response-variable slope with four parameters).

Human DHODH = target: T2, Human DHODH (Homo sapiens, UniProt Q02127); assay: DHODH inhibition, steady-state DCIP assay (human DHODH); assay type: biochemical; details: recombinant HsDHODH, DCIP method, 25°C, 5 nM enzyme; top concentration 100 µM or 30 µM
T2 construct: C-terminal His6-tagged HsDHODH residues 29-395 in pET-22b (start ^29MATGDE); His6 (C); made in house; host or cells: E. coli BL21-DE3 (phage-resistant)
T2 sequence (Q02127 29-395): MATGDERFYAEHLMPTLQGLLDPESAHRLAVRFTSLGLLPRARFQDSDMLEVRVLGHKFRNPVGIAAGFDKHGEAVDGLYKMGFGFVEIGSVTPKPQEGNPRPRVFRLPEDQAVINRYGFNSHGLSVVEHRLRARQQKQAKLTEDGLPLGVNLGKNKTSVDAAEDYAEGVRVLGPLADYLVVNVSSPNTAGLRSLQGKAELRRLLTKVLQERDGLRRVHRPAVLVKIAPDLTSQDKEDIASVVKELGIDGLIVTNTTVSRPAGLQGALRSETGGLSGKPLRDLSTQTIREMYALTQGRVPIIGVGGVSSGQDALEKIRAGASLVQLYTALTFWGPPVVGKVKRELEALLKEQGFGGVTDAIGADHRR
From the text: as §1, §2, §3, §4

[1] = recombinant PvDHODH, DCIP method, 25°C, 5 nM enzyme; read-out: P. vivax DHODH (IC50)
[2] = Plasmodium falciparum, 3D7, 72 h
[3] = read-out: P. vivax DHODH (IC50); recombinant PvDHODH, DCIP method, 25°C, 5 nM enzyme

Sequence of P. vivax DHODH (A5K1N1 entry or part of it): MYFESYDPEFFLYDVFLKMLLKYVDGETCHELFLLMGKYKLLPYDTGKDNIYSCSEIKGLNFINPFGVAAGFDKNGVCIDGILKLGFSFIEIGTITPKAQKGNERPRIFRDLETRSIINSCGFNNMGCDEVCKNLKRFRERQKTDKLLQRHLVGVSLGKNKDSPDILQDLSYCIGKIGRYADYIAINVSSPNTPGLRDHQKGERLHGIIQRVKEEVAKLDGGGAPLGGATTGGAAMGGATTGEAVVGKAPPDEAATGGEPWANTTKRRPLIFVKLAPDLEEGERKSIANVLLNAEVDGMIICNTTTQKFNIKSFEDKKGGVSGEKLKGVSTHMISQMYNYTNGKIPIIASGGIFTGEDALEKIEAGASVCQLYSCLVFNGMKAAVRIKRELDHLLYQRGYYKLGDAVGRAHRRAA

| Structure (SMILES) | IC50 (P. vivax DHODH; [1]) | IC50 (P. falciparum DHODH) | EC50 (P. falciparum 3D7; [2]) | IC50 (Human DHODH) | EC50 (P. falciparum 3D7; 72 h) | IC50 (P. vivax DHODH; [3]) |
| --- | --- | --- | --- | --- | --- | --- |
| CC(C)[C@@](O)(c1cnc(C(F)(F)F)c(Cl)c1)c1c2ccn(C3CC3)c(=O)c2nn1C (single isomer, unassigned) [1-1] | 0.04 µM | 0.046 µM | 0.016 µM | > 30 µM | – | – |
| Cn1nc2c(=O)n(C3CC3)ccc2c1[C@](O)(c1ccc(C(F)(F)F)c(C#N)c1)C1CC1 (single isomer, unassigned) [1-3] | 0.017 µM | 0.017 µM | 0.0013 µM | > 30 µM | – | – |
| CC[C@@](O)(c1ccc(C(F)(F)F)c(C#N)c1)c1c2ccn(C3CC3)c(=O)c2nn1C (single isomer, unassigned) [1-5] | 0.021 µM | 0.017 µM | 0.00075 µM | 0.91 µM | – | – |
| Cn1nc2c(=O)n(C3CC3)ccc2c1[C@](C)(O)c1ccc(F)c(Cl)c1 (single isomer, unassigned) [1-9] | 0.0069 µM | 0.016 µM | 0.00092 µM | 14 µM | – | – |
| CC[C@@](O)(c1ccc(F)c(Cl)c1)c1c2ccn(C3CC3)c(=O)c2nn1C (single isomer, unassigned) [1-13] | 0.011 µM | 0.007 µM | 0.00049 µM | 0.67 µM | – | – |
| CC[C@@](O)(c1cnc(C(F)(F)F)c(Cl)c1)c1c2ccn(C3CC3)c(=O)c2nn1C (single isomer, unassigned) [1-14] | 0.018 µM | 0.014 µM | 0.00064 µM | 4.2 µM | – | – |
| Cn1nc2c(=O)n(C3CC3)ccc2c1[C@](O)(c1cnc(C(F)(F)F)c(Cl)c1)C1CC1 (single isomer, unassigned) [1-16] | 0.023 µM | 0.016 µM | 0.0032 µM | > 30 µM | – | – |
| Cn1nc2c(=O)n(C3CC3)ccc2c1[C@](O)(c1ccc(F)c(Cl)c1)C1CC1 (single isomer, unassigned) [1-18] | 0.011 µM | 0.012 µM | 0.009 µM | 22 µM | – | – |
| CC[C@@](O)(c1cc(F)c(Cl)c(F)c1)c1c2ccn(C3CC3)c(=O)c2nn1C (single isomer, unassigned) [1-20] | 0.019 µM | – | 0.0005 µM | 1.4 µM | – | – |
| CC[C@@](O)(c1ccc(C(F)(F)F)nc1)c1c2ccn(C3CC3)c(=O)c2nn1C (single isomer, unassigned) [1-22] | 0.048 µM | – | 0.0027 µM | 5.3 µM | – | – |
| CCn1cc(F)c2c([C@@](O)(CC)c3ccc(C(F)(F)F)nc3)n(C)nc2c1=O (single isomer, unassigned) [1-24] | 0.033 µM | 0.024 µM | 0.0012 µM | 6.2 µM | – | – |
| Cn1nc2c(=O)n(C3CC3)ccc2c1[C@](O)(c1ccc(C(F)(F)F)nc1)C1CC1 (single isomer, unassigned) [1-26] | 0.048 µM | 0.046 µM | 0.0067 µM | > 30 µM | – | – |
| CCn1cc(C2CC2)c2c([C@H](O)c3cnc(C(F)(F)F)c(Cl)c3)n(C)nc2c1=O (single isomer, unassigned) [1-28] | 0.011 µM | 0.026 µM | 0.0046 µM | > 100 µM | – | – |
| CCn1cc(C)c2c([C@H](O)c3ccc(Cl)c(F)c3)n(C)nc2c1=O (single isomer, unassigned) [1-30] | 0.0079 µM | 0.018 µM | 0.007 µM | 34 µM | – | – |
| CCn1ccc2c([C@](O)(c3cnc(C(F)(F)F)c(Cl)c3)C3CC3)n(C)nc2c1=O (single isomer, unassigned) [1-32] | 0.008 µM | – | 0.0024 µM | > 100 µM | – | – |
| CCn1ccc2c([C@](O)(c3ccc(C(F)(F)F)nc3)C3CC3)n(C)nc2c1=O (single isomer, unassigned) [1-44] | 0.029 µM | – | 0.0072 µM | > 100 µM | – | – |
| Cn1nc2c(=O)n(C3CC3)ncc2c1[C@](O)(c1cnc(C(F)(F)F)c(Cl)c1)C1CC1 (single isomer, unassigned) [2-10] | 0.021 µM | – | 0.015 µM | > 30 µM | – | – |
| CC[C@@](O)(c1cnc(C(F)(F)F)c(Cl)c1)c1c2cnn(C3CC3)c(=O)c2nn1C (single isomer, unassigned) [2-14] | – | – | 0.0027 µM | > 30 µM | – | – |
| CC[C@@](O)(c1cnc(C(F)(F)F)c(Cl)c1)c1c2ncn(C3CC3)c(=O)c2nn1C (single isomer, unassigned) [3-5] | 0.017 µM | – | 0.00094 µM | 6.8 µM | – | – |
| Cn1nc2c(=O)n(C3CC3)ccc2c1[C@](N)(c1cnc(C(F)(F)F)c(Cl)c1)C1CC1 (single isomer, unassigned) [4-9] | – | 0.044 µM | 0.014 µM | 21 µM | – | – |
| CC[C@@](N)(c1ccc(C(F)(F)F)c(Cl)c1)c1c2cnn(C3CC3)c(=O)c2nn1C (single isomer, unassigned) [4-18] | 0.0062 µM | – | 0.0034 µM | 4.7 µM | – | – |
| Cn1nc2c(=O)n(C3CC3)ncc2c1[C@](O)(c1cnc(C(F)(F)F)c(Cl)c1)C(F)(F)F (single isomer, unassigned) [5-1] | 0.02 µM | – | 0.0038 µM | > 30 µM | – | – |
| Cn1nc2c(=O)n(C3CC3)ccc2c1[C@](O)(c1cnc(C(F)(F)F)c(Cl)c1)C(F)(F)F (single isomer, unassigned) [5-5] | – | – | 0.00051 µM | > 30 µM | – | – |
| Cn1nc2c(=O)n(C3CC3)ccc2c1[C@](O)(c1ccc(C(F)(F)F)nc1)C(F)(F)F (single isomer, unassigned) [5-11] | 0.025 µM | – | 0.0019 µM | > 30 µM | – | – |
| Cn1nc2c(=O)n(C3CC3)cnc2c1[C@](O)(c1ccc(C(F)(F)F)c(C#N)c1)C(F)(F)F (single isomer, unassigned) [5-56] | – | 0.018 µM | – | – | 0.00014 µM | – |
| Cn1nc2c(=O)n(C3CC3)ccc2c1[C@](O)(c1ccc(C(F)(F)F)c(Cl)c1)C(F)(F)F (stereo in doubt) [5-7] | – | – | 0.00017 µM | 4.7 µM | – | 0.0091 µM |
| Cn1nc2c(=O)n(C3CC3)ccc2c1[C@](C)(O)c1cnc(C(F)(F)F)c(Cl)c1 [1-10] | – | 0.025 µM | 0.0014 µM | – | – | 0.0097 µM |
